The test system of assay [1] is Mus musculus. Nature of the assay: Analgesic activity in formalin-induced nociception CD-1 mouse model assessed as reduction in pain behaviour by measuring less licking of formalin injected hind paw compound administered intraperitoneally prior to formalin induction and measured during early phase (0 to 5 mins after formalin injection) by formalin test. The conditions noted are these: CD-1, ip, time 0-5 min. The format is functional.

In assay [2] the target is Acetylcholinesterase (Electrophorus electricus) (UniProt O42275). Nature of the assay: Non-competitive inhibition of Electric eel AChE using ATCI as substrate incubated for 5 mins followed by substrate addition and measured after 5 mins by spectrophotometric based Cornish-Bowden plot analysis. The conditions noted are these: time 10.0 min.
In assay [3] the test system is Mus musculus. Nature of the assay: Antiallodynic activity in oxaliplatin-induced peripheral neuropathy pain CD-1 mouse model assessed as inhibition of early-phase tactile allodynia by measuring pain sensitivity threshold at 30 mg/kg administered with compound intraperitoneally at 3 hrs after oxaliplatin stimulation and measured after 30 mins by von Frey test (reference value: 61.2 %). Also on record: scale not given: the % may be the effect or the level left. As to conditions: 0.5 h. Type of assay: functional.

Assay [4] has as its system Rattus norvegicus. Nature of the assay: Analgesic activity in carragenan-induced thermal hyperalgesia model of Wistar (Krf:WI) rat assessed as latency of nociceptive response for radiant heat stimulation at 30 mg/kg treated prior to carrageenan challenge and measured after 6 hrs (reference value: 43.2%). The format is functional.
Assay [5] relates to Mus musculus. Nature of the assay: Antiallodynic activity in oxaliplatin-induced peripheral neuropathy pain CD-1 mouse model assessed as inhibition of late-phase tactile allodynia by measuring pain sensitivity threshold at 30 mg/kg administered with compound intraperitoneally at 7 days after oxaliplatin stimulation and measured after 30 mins by von Frey test (reference value: 65.3%). Also on record: scale not given: the % may be the effect or the level left. The conditions noted are these: 0.5 h. The format is functional.

Assay [6] has as its target Cholinesterase (Equus caballus) (UniProt P81908). Nature of the assay: Non-competitive inhibition of equine serum BChE using BTCI as substrate incubated for 5 mins followed by substrate addition and measured after 5 mins by spectrophotometric based Lineweaver-Burk plot analysis. The format is cell-free. As to conditions: time 10.0 min.
Assay [7] has as its system Rattus norvegicus. Nature of the assay: Antiinflammatory activity against Wistar (Krf:WI) rat assessed as reduction in carragenan-induced paw edema at 30 mg/kg treated prior to carrageenan challenge and measured after 2 hrs by plethysmometry relative to control. The format is functional.
In assay [8] the test system is Rattus norvegicus. Nature of the assay: Antiinflammatory activity against Wistar (Krf:WI) rat assessed as reduction in carragenan-induced paw edema at 22.5 mg/kg treated prior to carrageenan challenge and measured after 2 hrs by plethysmometry relative to control. Type of assay: functional.
Assay [9] has as its system Rattus norvegicus. Nature of the assay: Analgesic activity in carragenan-induced thermal hyperalgesia model of Wistar (Krf:WI) rat assessed as latency of nociceptive response for radiant heat stimulation at 30 mg/kg treated prior to carrageenan challenge and measured after 24 hrs (reference value: 83.3%). Type of assay: functional.
Assay [10] deals with Mus musculus. Nature of the assay: Antiallodynic activity in oxaliplatin-induced peripheral neuropathy pain CD-1 mouse model assessed as inhibition of late-phase tactile allodynia by measuring pain sensitivity threshold at 15 mg/kg administered with compound intraperitoneally at 7 days after oxaliplatin stimulation and measured after 30 mins by von Frey test (reference value: 65.3%). The format is functional. Also noted: scale not given: the % may be the effect or the level left. As to conditions: 0.5 h.

The subject of assay [11] is Rattus norvegicus. Nature of the assay: Antiinflammatory activity against Wistar (Krf:WI) rat assessed as reduction in carragenan-induced paw edema at 30 mg/kg treated prior to carrageenan challenge and measured after 6 hrs by plethysmometry relative to control. The format is functional.
The subject of assay [12] is Rattus norvegicus. Nature of the assay: Analgesic activity in Wistar (Krf:WI) rat assessed as inhibition of carrageenan-induced mechanical inflammatory hyperalgesia by measuring paw withdrawl threshold at 30 mg/kg treated prior to carrageenan challenge and measured after 3 to 24 hrs (reference value: 88.4 to 90.9 %). Type of assay: functional. Also noted: scale not given: the % may be the effect or the level left. As to conditions: time 3-24 hrs.

Assay [13] deals with Rattus norvegicus. Nature of the assay: Analgesic activity in carragenan-induced thermal hyperalgesia model of Wistar (Krf:WI) rat assessed as latency of nociceptive response for radiant heat stimulation at 30 mg/kg treated prior to carrageenan challenge and measured after 2 hrs (reference value: 63.6%). The format is functional.
The test system of assay [14] is Rattus norvegicus. Nature of the assay: Memory enhancement effect in dizocilpine-induced Wistar (Krf:WI) rat model of amnesia assessed as increase in step through latency administered with compound intraperitoneally and measured after 30 to 45 mins by step-through passive avoidance test. Type of assay: functional, organism-based. The conditions noted are these: dose 1.25-5 mg/kg, time 30-45 min.

Assay [15] deals with T1, Amine oxidase [flavin-containing] B (Homo sapiens, UniProt P27338).
T1 sequence (P27338 whole entry): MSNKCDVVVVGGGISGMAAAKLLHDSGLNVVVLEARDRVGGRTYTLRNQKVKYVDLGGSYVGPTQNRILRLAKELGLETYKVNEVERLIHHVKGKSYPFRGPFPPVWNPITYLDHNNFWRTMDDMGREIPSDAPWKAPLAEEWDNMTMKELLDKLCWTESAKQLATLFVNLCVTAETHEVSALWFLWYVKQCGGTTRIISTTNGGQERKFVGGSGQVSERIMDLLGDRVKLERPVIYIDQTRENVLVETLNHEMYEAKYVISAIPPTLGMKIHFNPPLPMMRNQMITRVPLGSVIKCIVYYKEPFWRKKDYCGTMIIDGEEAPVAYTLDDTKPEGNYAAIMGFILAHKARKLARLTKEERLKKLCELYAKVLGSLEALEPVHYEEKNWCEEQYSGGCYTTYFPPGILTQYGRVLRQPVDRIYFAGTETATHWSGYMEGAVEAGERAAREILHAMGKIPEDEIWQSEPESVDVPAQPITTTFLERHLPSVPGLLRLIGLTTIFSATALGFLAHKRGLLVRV
Nature of the assay: biochemical. Type of assay: cell-based, BTI.
Description: Inhibition of recombinant human MAO-B expressed in baculovirus infected BTI cells using p-tyramine as substrate by fluorometric assay

Activity calls are given as the source filed them.

Sequence of Acetylcholinesterase (Electrophorus electricus) (O42275 24-633 limits assumed): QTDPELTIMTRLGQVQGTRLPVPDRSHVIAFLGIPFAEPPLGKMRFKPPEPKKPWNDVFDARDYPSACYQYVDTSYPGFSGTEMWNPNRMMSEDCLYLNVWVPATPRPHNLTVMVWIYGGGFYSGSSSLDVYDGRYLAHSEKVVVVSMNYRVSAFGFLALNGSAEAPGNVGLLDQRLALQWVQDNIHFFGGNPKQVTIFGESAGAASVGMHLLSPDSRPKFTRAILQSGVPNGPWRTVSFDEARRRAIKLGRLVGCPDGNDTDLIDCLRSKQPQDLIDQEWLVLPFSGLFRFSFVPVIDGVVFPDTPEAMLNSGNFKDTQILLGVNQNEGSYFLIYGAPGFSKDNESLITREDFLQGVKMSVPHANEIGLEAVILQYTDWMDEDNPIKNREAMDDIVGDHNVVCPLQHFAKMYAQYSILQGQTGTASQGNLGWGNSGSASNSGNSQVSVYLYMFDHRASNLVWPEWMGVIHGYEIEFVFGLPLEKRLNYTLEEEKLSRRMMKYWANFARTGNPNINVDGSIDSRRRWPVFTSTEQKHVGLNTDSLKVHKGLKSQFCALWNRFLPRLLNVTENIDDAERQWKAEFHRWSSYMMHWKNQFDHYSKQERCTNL
Sequence of Cholinesterase (Equus caballus) (P81908 whole entry): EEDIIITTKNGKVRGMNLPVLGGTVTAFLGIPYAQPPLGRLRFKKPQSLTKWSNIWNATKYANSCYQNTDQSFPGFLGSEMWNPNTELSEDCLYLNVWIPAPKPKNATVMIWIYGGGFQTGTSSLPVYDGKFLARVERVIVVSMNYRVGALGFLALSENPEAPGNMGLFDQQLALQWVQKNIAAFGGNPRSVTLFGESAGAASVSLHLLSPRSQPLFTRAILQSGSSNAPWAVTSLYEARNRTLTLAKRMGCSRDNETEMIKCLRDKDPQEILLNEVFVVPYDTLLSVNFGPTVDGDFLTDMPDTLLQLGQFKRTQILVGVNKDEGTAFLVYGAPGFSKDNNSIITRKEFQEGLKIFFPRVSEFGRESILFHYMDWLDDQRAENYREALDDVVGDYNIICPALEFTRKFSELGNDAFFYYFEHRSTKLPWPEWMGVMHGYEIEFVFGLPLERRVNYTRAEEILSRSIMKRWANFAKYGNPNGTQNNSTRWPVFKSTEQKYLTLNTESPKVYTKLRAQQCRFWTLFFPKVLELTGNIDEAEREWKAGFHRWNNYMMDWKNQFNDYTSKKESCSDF

With `O=c1c2ccccc2oc2ccc(OCCCCCN3CCCCCC3)cc12`, the ED50 in assay [1] is 24.7 mg/kg. The inhibition entry in assay [2] and in assay [6] was “Active” each time. The Activity came out at 95.6% in [3]; 92% in assay [4]; 100% in [5]; 116% in assay [9]; 85.9% in [10]; 118% in assay [12]. In addition, the Activity in [13] was 102.8%; in assay [14] it was “Dose-dependent effect”. Moreover, the inhibition in vivo at 30 mg/kg in [7] stood at 53.3%; in [11], 44.9%. Further, the inhibition in vivo at 22.5 mg/kg in assay [8] was found to be 32.8%. The compound also came in with an IC50 in [15] of 775 nM.
